The values below come from patent US10308639B2, “Phosphatidylinositol 3-kinase inhibitors” (Gilead Sciences, Inc., priority 2014, dated 2019).

A value given as a limit tells only on which side of the number the result lay.

Common to all, as to assay type: biochemical
One test concerns the target T1, PI3Kβ (Homo sapiens, UniProt P42338).
T1 construct: made in house
The experiment in a line: TR-FRET enzymatic activity assay, PI3Kβ. Particulars: Table 2a; same assay.

For a further test, the target named is T2, PI3Kδ (Homo sapiens, UniProt O00329).
T2 construct: made in house
T2 sequence (O00329 whole entry): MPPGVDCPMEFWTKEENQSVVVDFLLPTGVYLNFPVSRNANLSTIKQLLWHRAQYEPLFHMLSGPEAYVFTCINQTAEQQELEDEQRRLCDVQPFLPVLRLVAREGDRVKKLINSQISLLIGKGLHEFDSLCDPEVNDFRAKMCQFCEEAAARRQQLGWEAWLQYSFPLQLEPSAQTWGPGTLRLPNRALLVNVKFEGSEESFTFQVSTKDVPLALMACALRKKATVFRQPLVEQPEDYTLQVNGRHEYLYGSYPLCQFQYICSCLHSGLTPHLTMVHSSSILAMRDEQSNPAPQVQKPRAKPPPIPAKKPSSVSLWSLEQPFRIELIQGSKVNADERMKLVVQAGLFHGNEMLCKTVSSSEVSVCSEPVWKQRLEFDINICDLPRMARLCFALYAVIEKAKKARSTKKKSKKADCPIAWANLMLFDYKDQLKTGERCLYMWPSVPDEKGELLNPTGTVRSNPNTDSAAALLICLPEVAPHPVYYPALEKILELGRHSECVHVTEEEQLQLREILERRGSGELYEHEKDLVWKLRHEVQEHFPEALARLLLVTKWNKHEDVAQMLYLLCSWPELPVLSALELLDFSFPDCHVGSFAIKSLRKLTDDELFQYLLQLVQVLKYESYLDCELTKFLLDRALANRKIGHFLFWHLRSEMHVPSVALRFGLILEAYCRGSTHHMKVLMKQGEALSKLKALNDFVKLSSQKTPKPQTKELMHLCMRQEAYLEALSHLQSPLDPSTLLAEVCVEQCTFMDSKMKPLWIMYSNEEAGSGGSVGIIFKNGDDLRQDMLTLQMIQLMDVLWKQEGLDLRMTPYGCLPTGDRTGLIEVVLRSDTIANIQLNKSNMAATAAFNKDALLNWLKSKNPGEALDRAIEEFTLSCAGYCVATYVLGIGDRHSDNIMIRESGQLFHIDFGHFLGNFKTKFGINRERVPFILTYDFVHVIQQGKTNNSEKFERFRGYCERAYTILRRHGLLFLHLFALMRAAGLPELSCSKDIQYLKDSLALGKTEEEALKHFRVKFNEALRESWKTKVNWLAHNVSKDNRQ
T2 sequence (P27986 whole entry partner): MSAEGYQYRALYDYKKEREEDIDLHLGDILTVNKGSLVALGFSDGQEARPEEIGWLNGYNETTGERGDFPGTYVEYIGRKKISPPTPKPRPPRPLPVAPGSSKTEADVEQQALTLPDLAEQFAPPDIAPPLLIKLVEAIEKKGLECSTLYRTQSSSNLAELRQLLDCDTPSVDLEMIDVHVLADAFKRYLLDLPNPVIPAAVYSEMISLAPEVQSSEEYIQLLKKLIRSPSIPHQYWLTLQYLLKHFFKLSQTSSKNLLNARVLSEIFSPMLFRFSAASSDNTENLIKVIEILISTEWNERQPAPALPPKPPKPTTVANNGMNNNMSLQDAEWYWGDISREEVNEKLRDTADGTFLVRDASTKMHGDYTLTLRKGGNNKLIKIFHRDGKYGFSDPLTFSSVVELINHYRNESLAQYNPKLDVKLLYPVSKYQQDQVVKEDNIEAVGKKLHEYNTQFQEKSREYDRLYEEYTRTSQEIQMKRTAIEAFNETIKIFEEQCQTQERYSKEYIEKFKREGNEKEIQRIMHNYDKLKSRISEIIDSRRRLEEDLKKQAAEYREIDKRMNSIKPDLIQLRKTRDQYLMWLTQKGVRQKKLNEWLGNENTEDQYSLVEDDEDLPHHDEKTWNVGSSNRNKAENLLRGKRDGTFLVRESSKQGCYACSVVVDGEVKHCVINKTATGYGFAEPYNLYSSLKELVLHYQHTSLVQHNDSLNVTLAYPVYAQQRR
The experiment in a line: TR-FRET enzymatic activity assay, PI3Kδ. Particulars: Table 2a; same assay. A general note: TR-FRET usually uses a lanthanide donor and a delayed reading to cut background.

In another test the target is T3, PI3Kγ (Homo sapiens, UniProt P48736).
T3 construct: made in house
T3 sequence (P48736 whole entry): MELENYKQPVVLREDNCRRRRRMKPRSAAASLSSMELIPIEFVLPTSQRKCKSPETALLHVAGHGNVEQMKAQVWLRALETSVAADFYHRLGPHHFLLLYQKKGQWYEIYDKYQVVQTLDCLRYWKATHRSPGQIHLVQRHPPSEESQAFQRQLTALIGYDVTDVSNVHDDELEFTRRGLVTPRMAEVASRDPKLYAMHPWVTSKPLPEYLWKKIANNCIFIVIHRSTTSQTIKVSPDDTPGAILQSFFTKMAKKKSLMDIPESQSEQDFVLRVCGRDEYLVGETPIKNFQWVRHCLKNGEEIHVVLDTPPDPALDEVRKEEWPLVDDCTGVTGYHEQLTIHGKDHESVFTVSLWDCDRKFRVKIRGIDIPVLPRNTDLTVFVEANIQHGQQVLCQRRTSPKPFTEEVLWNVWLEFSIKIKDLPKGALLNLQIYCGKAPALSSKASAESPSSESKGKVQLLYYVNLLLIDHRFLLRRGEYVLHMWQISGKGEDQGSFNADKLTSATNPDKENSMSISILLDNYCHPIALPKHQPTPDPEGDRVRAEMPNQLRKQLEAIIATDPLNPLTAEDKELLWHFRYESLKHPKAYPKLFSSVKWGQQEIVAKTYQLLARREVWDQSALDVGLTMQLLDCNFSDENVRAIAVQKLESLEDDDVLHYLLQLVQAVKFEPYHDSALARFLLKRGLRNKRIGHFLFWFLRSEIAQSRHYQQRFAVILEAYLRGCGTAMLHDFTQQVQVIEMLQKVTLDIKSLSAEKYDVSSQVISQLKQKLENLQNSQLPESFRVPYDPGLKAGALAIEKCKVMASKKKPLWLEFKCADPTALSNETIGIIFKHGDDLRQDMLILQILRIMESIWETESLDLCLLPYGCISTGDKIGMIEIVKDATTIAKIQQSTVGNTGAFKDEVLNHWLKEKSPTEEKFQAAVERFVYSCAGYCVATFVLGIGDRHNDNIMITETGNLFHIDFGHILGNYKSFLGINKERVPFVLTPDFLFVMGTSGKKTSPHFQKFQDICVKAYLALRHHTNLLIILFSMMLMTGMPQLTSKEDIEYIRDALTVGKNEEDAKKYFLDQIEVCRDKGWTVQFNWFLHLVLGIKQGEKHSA
The experiment in a line: TR-FRET enzymatic activity assay, PI3Kγ. The following applies: Table 2a; same assay; read-out: PI3Kγ IC50. Summed up:
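Activity measured by time-resolved FRET; each isoform tested in its own enzymatic reaction.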

T1 sequence (P42338 whole entry): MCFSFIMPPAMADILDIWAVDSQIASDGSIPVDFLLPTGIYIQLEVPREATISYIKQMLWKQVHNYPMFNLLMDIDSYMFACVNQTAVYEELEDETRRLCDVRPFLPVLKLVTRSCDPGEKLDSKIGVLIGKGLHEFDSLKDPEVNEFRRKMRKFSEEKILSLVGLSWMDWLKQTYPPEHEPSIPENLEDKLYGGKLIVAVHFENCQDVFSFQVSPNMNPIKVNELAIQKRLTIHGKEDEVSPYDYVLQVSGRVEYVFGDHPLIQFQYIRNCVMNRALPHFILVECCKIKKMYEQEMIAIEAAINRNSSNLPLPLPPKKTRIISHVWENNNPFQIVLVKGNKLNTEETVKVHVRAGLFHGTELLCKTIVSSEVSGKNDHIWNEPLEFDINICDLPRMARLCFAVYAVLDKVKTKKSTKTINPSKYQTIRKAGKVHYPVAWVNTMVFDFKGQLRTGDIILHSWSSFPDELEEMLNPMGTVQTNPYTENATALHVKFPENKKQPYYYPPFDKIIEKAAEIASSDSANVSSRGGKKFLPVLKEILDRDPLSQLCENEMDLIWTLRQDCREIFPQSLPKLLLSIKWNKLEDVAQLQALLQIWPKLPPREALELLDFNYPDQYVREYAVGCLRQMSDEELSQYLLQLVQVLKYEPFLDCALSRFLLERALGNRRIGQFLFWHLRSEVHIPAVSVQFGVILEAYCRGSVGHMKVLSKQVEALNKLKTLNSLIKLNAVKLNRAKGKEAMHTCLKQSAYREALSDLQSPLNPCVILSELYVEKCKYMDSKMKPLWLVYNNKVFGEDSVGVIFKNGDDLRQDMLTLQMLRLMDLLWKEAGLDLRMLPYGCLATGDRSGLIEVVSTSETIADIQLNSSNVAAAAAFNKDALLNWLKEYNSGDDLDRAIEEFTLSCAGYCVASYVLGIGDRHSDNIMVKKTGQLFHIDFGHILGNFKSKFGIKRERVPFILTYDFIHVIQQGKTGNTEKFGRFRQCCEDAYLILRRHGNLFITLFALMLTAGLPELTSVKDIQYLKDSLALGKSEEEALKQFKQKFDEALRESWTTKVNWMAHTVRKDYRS
T1 sequence (P27986 whole entry partner): as the sequence (P27986 whole entry partner) above

`N#Cc1c(N)nc(N)nc1N[C@H](c1nc2c(F)cc(F)cc2c(=O)n1-c1cc[nH]n1)C1CC1` [Compound 170, (S)-2,4-diamino-6-((cyclopropyl(6,8-difluoro-4-oxo-3-(1H-pyrazol-3-yl)-3,4-dihydroquinazolin-2-yl)methyl)amino)pyrimidine-5-carbonitrile]: the IC50 is 3 nM at PI3Kβ, 1 nM on PI3Kδ and 436 nM on PI3Kγ.

In the case of `C[C@@H](Nc1nc(N)nc(N)c1C#N)c1nc2c(Cl)cc(F)cc2c(=O)n1-c1cc[nH]n1` [Compound 175, (R)-2,4-diamino-6-((1-(8-chloro-6-fluoro-4-oxo-3-(1H-pyrazol-3-yl)-3,4-dihydroquinazolin-2-yl)ethyl)amino)pyrimidine-5-carbonitrile], the IC50 on PI3Kβ is 19 nM; on PI3Kδ, 13 nM; at PI3Kγ, more than 10000 nM.

`C[C@H](Nc1nc(N)nc(C(F)F)c1C#N)c1nc2cccc(C(F)F)c2c(=O)n1-c1cc[nH]n1` [Compound 176, (S)-2-amino-4-(difluoromethyl)-6-((1-(5-(difluoromethyl)-4-oxo-3-(1H-pyrazol-3-yl)-3,4-dihydroquinazolin-2-yl)ethyl)amino)pyrimidine-5-carbonitrile]: the IC50 against PI3Kβ amounted to 26 nM; on PI3Kδ it was 18 nM; at PI3Kγ it was 2000 nM.

On to `N#Cc1c(N[C@H](c2nc3cccc(C(F)F)c3c(=O)n2-c2cc[nH]n2)C2CC2)nc(N)nc1C(F)F` [Compound 177, (S)-2-amino-4-((cyclopropyl(5-(difluoromethyl)-4-oxo-3-(1H-pyrazol-3-yl)-3,4-dihydroquinazolin-2-yl)methyl)amino)-6-(difluoromethyl)pyrimidine-5-carbonitrile], for which the IC50 amounted to 29 nM against PI3Kβ, 26 nM on PI3Kδ and 2300 nM on PI3Kγ.

As to `C[C@H](Nc1nc(N)nc(C(F)F)c1C#N)c1nc2cccc(C(F)(F)F)c2c(=O)n1-c1cc[nH]n1` [Compound 178, (S)-2-amino-4-(difluoromethyl)-6-((1-(4-oxo-3-(1H-pyrazol-3-yl)-5-(trifluoromethyl)-3,4-dihydroquinazolin-2-yl)ethyl)amino)pyrimidine-5-carbonitrile], the IC50 against PI3Kβ amounted to 34 nM; on PI3Kδ, 23 nM; at PI3Kγ it was 2240 nM.

Take `C[C@H](Nc1nc(N)nc(C(F)F)c1C#N)c1nc2cccc(C(F)F)c2c(=O)n1-c1cn[nH]c1` [Compound 179, (S)-2-amino-4-(difluoromethyl)-6-((1-(5-(difluoromethyl)-4-oxo-3-(1H-pyrazol-4-yl)-3,4-dihydroquinazolin-2-yl)ethyl)amino)pyrimidine-5-carbonitrile]: the IC50 on PI3Kβ came out at 78 nM; on PI3Kδ, 27 nM; at PI3Kγ, 950 nM.

`C[C@@H](Nc1nc(N)nc(N)c1Cl)c1nc2cccc(C(F)F)c2c(=O)n1-c1cc[nH]n1` [Compound 181, (R)-2-(1-((2,6-diamino-5-chloropyrimidin-4-yl)amino)ethyl)-5-(difluoromethyl)-3-(1H-pyrazol-3-yl)quinazolin-4(3H)-one]: the IC50 on PI3Kβ is 65 nM; against PI3Kδ, 77 nM; at PI3Kγ, more than 10000 nM.

Turning to `C[C@@H](Nc1nc(N)nc(N)c1C#N)c1nc2cccc(C(F)F)c2c(=O)n1-c1cc[nH]n1` [Compound 182, (R)-2,4-diamino-6-((1-(5-(difluoromethyl)-4-oxo-3-(1H-pyrazol-3-yl)-3,4-dihydroquinazolin-2-yl)ethyl)amino)pyrimidine-5-carbonitrile], the IC50 amounted to 18 nM against PI3Kβ, 8 nM at PI3Kδ and 7300 nM on PI3Kγ.

Regarding `C[C@H](Nc1nc(N)nc(C(F)F)c1C#N)c1nc2c(Cl)cc(F)cc2c(=O)n1-c1cn[nH]c1` [Compound 183, (S)-2-amino-4-((1-(8-chloro-6-fluoro-4-oxo-3-(1H-pyrazol-4-yl)-3,4-dihydroquinazolin-2-yl)ethyl)amino)-6-(difluoromethyl)pyrimidine-5-carbonitrile], the IC50 against PI3Kβ turned out to be 25 nM; at PI3Kδ it was 9 nM; on PI3Kγ, 840 nM.

On to `N#Cc1c(N[C@H](c2nc3c(Cl)cc(F)cc3c(=O)n2-c2cn[nH]c2)C2CC2)nc(N)nc1C(F)F` [Compound 184, (S)-2-amino-4-(((8-chloro-6-fluoro-4-oxo 3-(1H-pyrazol-4-yl)-3,4-dihydroquinazolin-2-yl)(cyclopropyl)methyl)amino)-6-(difluoromethyl)pyrimidine-5-carbonitrile], for which the values for the IC50 against PI3Kβ, at PI3Kδ and on PI3Kγ were 8 nM, 9 nM and 1500 nM, respectively.

For `C[C@H](Nc1nc(N)nc(C(F)F)c1C#N)c1nc2c(F)ccc(Cl)c2c(=O)n1-c1cc[nH]n1` [Compound 185, (S)-2-amino-4-((1-(5-chloro-8-fluoro-4-oxo-3-(1H-pyrazol-3-yl)-3,4-dihydroquinazolin-2-yl)ethyl)amino)-6-(difluoromethyl)pyrimidine-5-carbonitrile], the IC50 against PI3Kβ came to 6 nM; against PI3Kδ it was 4 nM; on PI3Kγ, 1300 nM.

In the case of `C[C@H](Nc1nc(N)nc(C(F)F)c1C#N)c1nc2c(Cl)cccc2c(=O)n1-c1cc[nH]n1` [Compound 188, (S)-2-amino-4-((1-(8-chloro-4-oxo-3-(1H-pyrazol-3-yl)-3,4-dihydroquinazolin-2-yl)ethyl)amino)-6-(difluoromethyl)pyrimidine-5-carbonitrile], the half-inhibitory concentration (IC50) was determined as 9 nM against PI3Kβ, 4 nM against PI3Kδ and 4000 nM at PI3Kγ.

Consider `N#Cc1c(C(F)F)nc(N)nc1N1CCC[C@H]1c1nc2cccc(Cl)c2c(=O)n1-c1cc[nH]n1` [Compound 189, (S)-2-amino-4-(2-(5-chloro-4-oxo-3-(1H-pyrazol-3-yl)-3,4-dihydroquinazolin-2-yl)pyrrolidin-1-yl)-6-(difluoromethyl)pyrimidine-5-carbonitrile], for which the figures for the IC50 against PI3Kβ, on PI3Kδ and at PI3Kγ were 2000 nM, 130 nM and more than 10000 nM, respectively.

For the molecule `C[C@H](Nc1nc(N)nc(C(F)F)c1C#N)c1nc2c(Cl)ccc(Cl)c2c(=O)n1-c1cc[nH]n1` [Compound 190, (S)-2-amino-4-((1-(5,8-dichloro-4-oxo-3-(1H-pyrazol-3-yl)-3,4-dihydroquinazolin-2-yl)ethyl)amino)-6-(difluoromethyl)pyrimidine-5-carbonitrile], the results for the IC50 at PI3Kβ, at PI3Kδ and at PI3Kγ were 31 nM, 8 nM and 9900 nM, respectively.

With `C[C@H](Nc1nc(N)nc(C(F)F)c1C#N)c1nc2c(F)ccc(F)c2c(=O)n1-c1cc[nH]n1` [Compound 192, (S)-2-amino-4-((1-(5,8-difluoro-4-oxo-3-(1H-pyrazol-3-yl)-3,4-dihydroquinazolin-2-yl)ethyl)amino)-6-(difluoromethyl)pyrimidine-5-carbonitrile], the IC50 against PI3Kβ amounted to 62 nM; at PI3Kδ it was 21 nM; on PI3Kγ it was 4700 nM.

Regarding `N#Cc1c(N[C@H](c2nc3c(F)ccc(Cl)c3c(=O)n2-c2cc[nH]n2)C2CC2)nc(N)nc1C(F)F` [Compound 194, (S)-2-amino-4-(((5-chloro-8-fluoro-4-oxo-3-(1H-pyrazol-3-yl)-3,4-dihydroquinazolin-2-yl)(cyclopropyl)methyl)amino)-6-(difluoromethyl)pyrimidine-5-carbonitrile], the figures for the IC50 against PI3Kβ, at PI3Kδ and on PI3Kγ were 23 nM, 20 nM and 2200 nM, respectively.

As a reminder, the IC50 is the concentration that inhibits the measured activity by half.
